The target of one test is T1, human MTAP (Homo sapiens, UniProt Q13126).
T1 sequence (Q13126 1-283): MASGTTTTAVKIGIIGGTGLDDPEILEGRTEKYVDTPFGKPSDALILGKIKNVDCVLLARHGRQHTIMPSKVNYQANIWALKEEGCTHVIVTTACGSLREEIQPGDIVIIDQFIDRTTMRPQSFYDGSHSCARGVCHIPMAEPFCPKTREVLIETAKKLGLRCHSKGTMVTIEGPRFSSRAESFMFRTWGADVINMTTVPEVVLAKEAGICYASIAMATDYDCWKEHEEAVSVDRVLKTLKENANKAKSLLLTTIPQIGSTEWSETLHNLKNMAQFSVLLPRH
Type of test: biochemical. Particulars: for Km/Ki ratio for human MTAP: Km of MTA over Ki of the inhibitor.

The target of the next test is E. coli MTAN (Escherichia coli, UniProt P0AF12). The experiment in a line: Inhibition of E. coli MTAN, xanthine oxidase-coupled enzyme assay. Type of test: biochemical. Particulars: Km of MTA over Ki of the inhibitor.
E. coli MTAN, sequence (P0AF12 whole entry): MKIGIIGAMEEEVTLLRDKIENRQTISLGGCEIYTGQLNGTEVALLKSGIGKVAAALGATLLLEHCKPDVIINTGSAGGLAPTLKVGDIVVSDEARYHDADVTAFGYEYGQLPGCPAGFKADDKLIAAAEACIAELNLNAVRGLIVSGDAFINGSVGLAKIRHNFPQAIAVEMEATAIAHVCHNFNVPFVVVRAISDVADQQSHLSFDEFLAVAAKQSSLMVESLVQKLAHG

As for `CC[C@H]1CN(Cc2c[nH]c3c(N)ncnc23)C[C@@H]1O` (racemic) [(±)-28, (±)-trans-1-[(9-Deaza-adenin-9-yl)methyl]-4-ethyl-3-hydroxypyrrolidine], on human MTAP (from the Km/Ki ratios), the “Better competitor for the catalytic site of human MTAP than for E. coli MTAN, factor” value worked out at 6. Further, the “Km/Ki ratio for E. coli MTAN” value at E. coli MTAN is 512.

In the case of `C=C[C@H]1CN(Cc2c[nH]c3c(N)ncnc23)C[C@@H]1O` (racemic) [(±)-40, (±)-trans-1-[(9-Deaza-adenin-9-yl)methyl]-3-hydroxy-4-vinylpyrrolidine], at human MTAP, the “Km/Ki ratio for human MTAP” value amounted to 1649. Moreover, the “Km/Ki ratio for E. coli MTAN” value at E. coli MTAN came out at 662.

Turning to `C=CC[C@H]1CN(Cc2c[nH]c3c(N)ncnc23)C[C@@H]1O` (racemic) [(±)-41, (±)-trans-4-Allyl-1-[(9-deaza-adenin-9-yl)methyl]-3-hydroxypyrrolidine], the “Km/Ki ratio for human MTAP” value at human MTAP is 1759. Also, the “Km/Ki ratio for E. coli MTAN” value on E. coli MTAN is 1228.

With `Nc1ncnc2c(CN3C[C@H](CCCSCc4ccccc4)[C@@H](O)C3)c[nH]c12` (racemic) [(±)-57, (±)-trans-4-[3-(Benzylthio)propyl]-1-[(9-deaza-adenin-9-yl)methyl]-3-hydroxypyrrolidine], the “Km/Ki ratio for human MTAP” value at human MTAP is recorded as 74. On E. coli MTAN, the “Km/Ki ratio for E. coli MTAN” value worked out at 7963.

The values are drawn from article PMC3742014 (Journal of medicinal chemistry, 2010).
